Results on six compounds are retold here after publication PMC10779086, “3-O-Methyltolcapone and Its Lipophilic Analogues Are Potent Inhibitors of Transthyretin Amyloidogenesis with High Permeability and Low Toxicity” (International Journal of Molecular Sciences, 2023).

As usually defined, the solubility is how much of the substance goes into solution per volume. The EC50 is the concentration giving half of the maximal effect. A higher EC50 goes with a less potent agent. One may read the Papp A→B as the apparent permeability from the apical to the basolateral side of a cell layer. A low value points to poor permeation. A word on the Papp B→A: it is the apparent permeability from the basolateral to the apical side of a cell layer. A word on the Kd: it is the equilibrium constant for the complex coming apart.

Series [1] is described as follows: Kinetic solubility in PBS. Format: physicochemical. To be noted: Phosphate Buffered Saline (PBS), aqueous buffer, kinetic from dmso stock, PBS pH 7.4, 1% DMSO. The procedure: (§1) The assay combines solubility and a non-cell-based Blood Brain Barrier permeability assay (Parallel Artificial Membrane Permeation Assay; PAMPA-BBB) into a single workflow in which a portion of the filtrate from the Solubility filter plate is added to the donor compartment of the MultiScreen filter plate for the PAMPA-BBB analysis. […] Solutions were filtered into a 96-well collection plate using vacuum filtration and then analysed by UV/Vis spectroscopy. The relative solubility was then calculated using the sum of the recorded values as compared to a standard calibration curve. […] PAMPA-BBB determination was carried out in a 96-well MultiScreen Permeability plate and the ability of a compound to diffuse from a Donor to an Acceptor compartment separated by a Porcine Brain Lipid Extract (PBLE) dissolved in dodecane (20 mg/mL) layer on a PVDF membrane support was measured. The assay was performed in duplicate in PBS at pH 7.4 and the analysis is carried out by UV/Vis spectroscopy.

Series [2] is described as follows: Chromatographic Hydrophobicity Index (CHI). Format: physicochemical. The text has this:
The assay is a chromatographic fast gradient reversed-phase method which allows to characterize the lipophilicity of compounds in high throughput screening regime at three different pH values (2.0; 7.4; 10.5). The so defined CHI is obtained from the gradient (buffer/Acetonitrile) retention time after calibrating the chromatographic system with a test mixture of ten known standard compounds. For most compounds, CHI is between 0 and 100 and it approximates the percentage (by volume) of acetonitrile required to achieve an equal distribution of compound between the mobile and the lipophilic stationary phase of a C18 chromatographic column. Compounds that are not retained on the column are assigned to a CHI value < 0, which means very low lipophilicity. For highly lipophilic compounds, which are strongly retained by the column, a CHI value of >100 is assigned. For any value in between, the actual CHI value is calculated based on the calibration line of the reference compounds [49].

The subject of series [3] is SH-SY5Y neuroblastoma human cell line. Put plainly: Cytotoxicity in SH-SY5Y cells (ATP viability assay). Format: cell-based. To be noted: 48 h. How it is done: The neuroblastoma cell line SHSY-5Y (ATCC CRL2266) was cultured in EMEM ATCC medium supplemented with 10% FBS (Euroclone CAT No. ECS0180D), 100 units/mL penicillin, and 100 ug/mL streptomycin sulphate (Euroclone CAT No. ECB3001). Cells were grown at 37 °C in an atmosphere of 5% CO2 and plated at 10,000 cells/well in a 96-well plate (Corning Cat. N. 3610). The compounds were dissolved at a concentration of 10 mM in DMSO. Cells were stimulated for 48 h at 37 °C with serial dilutions of the compounds at the following concentrations: 0.1, 1, 10, 50, 100, and 200 μM and dispensed with an HP Dispenser (Tecan), as triplicates for each concentration. DMSO normalisation at 1.5% was performed in each well.
(§2) Cell viability was evaluated by measuring ATP levels using CellTiter Glo (Promega Cat.n. G7570) according to manufacturer’s instructions.

Series [4] concerns HepG2 human liver cancer cell line. The series is described as follows: Cytotoxicity in HepG2 cells (ATP viability assay). To be noted: 48 h. Format: cell-based. How it is done: Compounds were dissolved at the concentration of 50 mM in DMSO.
DMSO normalisation at 1.0% was performed in each well.
as §2

Series [5] is described as follows: Caco-2 intestinal permeability. Format: in vitro ADME, human. To be noted: human; for Papp A→B at 60 min, 10 μM / Papp B→A at 60 min, 10 μM: Caco-2, pH 7.4; for recovery at 60 min: Caco-2, pH 7.4, with Elacridar 2 µM. How it is done: (§3) Caco-2 cells (cod. HTB-37) were bought from ATCC (American Type Culture Collection, Rockville, MD, USA). Caco-2 cells were cultured for 21 days on a 24 trans-well plate to reach the right confluence and differentiate until the formation of the intestinal epithelium mimetic monolayer. The test substance permeability was measured in both directions (apical to basolateral [A→B] and basolateral to apical [B→A]) across the cell monolayer. The assay was carried out in HBSS transport medium at pH 7.4. Test substance at single concentration (10 μM) was tested in duplicate at one time point (60 min). Monolayer integrity of Caco-2 cells was evaluated by TEER measurements during the experiment and by Lucifer Yellow test after the incubation with the test compound. The concentrations of the test substance and/or reference controls were measured by LC-MS/MS.
(§4) When the inhibitor leads the efflux ratio to a significant reduction (>50%) or to unity, the test compound is classified as a probable substrate of that efflux transporter. As control, the modulation of the efflux ratio of a reference known substrate (Digoxin) was evaluated with or without the respectively inhibitors in every experiment. […] In parallel, mass balance (%) of recovered test substance was also determined. […] Outside these ranges the permeability data is not reliable.
(In general: Caco-2 cells form a polarised layer with tight junctions and transporters.)

Series [6] in a line: Blood-brain barrier permeability (PAMPA-BBB). Format: in vitro ADME. How it is done:
as §1
The compounds are classified into 2 types: CNS+ compounds that can cross the BBB and CNS- compounds that cannot according to the Pe values (BBB−, Pe < 2 × 10^−6 cm/s; BBB +/−, 2 × 10^−6 cm/s < Pe < 4 × 10^−6 cm/s; BBB+, Pe > 4 × 10^−6 cm/s).
Membrane retention is also evaluated according to Equation (1), (1) 1−Rm=CAccVAcc+CDonorVDonor/Sol×VDonor where Rm is the membrane retention factor. 1 − Rm between 1.2 and 0.8 is considered fully acceptable for the reliability of the results.
Background: PAMPA measures passive passage across an artificial lipid membrane.

Series [7] deals with TTR. To be noted: sequential model, cited from earlier work.
For series [8], the target named is TTR (Homo sapiens, UniProt P02766). The series is described as follows: Isothermal titration calorimetry (ITC), one-binding-site model. More on the design: made in house; host or cells: E. coli BL21. To be noted: single-binding-site model, 25 °C. The procedure:
At an absorbance value of 600 nm around 0.3, the temperature was shifted to 30 °C.
Data were fitted using the “one-binding-site model” of the Malvern version of ORIGIN v.7. The heat of binding (ΔH), the stoichiometry (n), entropy (ΔS) and the dissociation constant (Kd) were then calculated from plots of the heat evolved per mole of ligand injected versus the molar ratio of ligand to protein using the software provided by the vendor (Table 3). Sample preparation is detailed below. […] A 10 µM protein stock in 2× buffer was then prepared and diluted 1:1 with a 10% DMSO solution, to obtain a 5 µM TTR solution in 1× buffer A and 5% DMSO. Different protein concentrations (3–5 µM) assayed in the replicates were prepared accordingly, starting from a 2× protein solution in 2× buffer A. Each ligand was dissolved in 100% DMSO and a 2 mM stock solution in 100% DMSO was prepared. A 200 µM compound solution was obtained in 10% DMSO and diluted 1:1 with 2× buffer A, to obtain a 100 µM ligand solution to be used for the ITC assays (in 1× buffer A and 5% DMSO).

Series [9] concerns Caco-2 cells. To be noted: expected value in brackets, cited from earlier work.
For series [10] the following is noted: cited from earlier work.
For series [11], the system named is Caco-2 cells. Put plainly: Caco-2 intestinal permeability. Format: in vitro ADME, human. To be noted: reduction of efflux ratio by Elacridar 2 µM. The procedure:
as §3, §4

Several values for one entry are separate records, joined by “and”; a condition that tells them apart may be missing. Equal entries are not always repeated. Where two headings read alike, the source gives them in different places. Where only a bound is given, the exact number is not on record here.

Turning to `Cn1c(=O)c2[nH]cnc2n(C)c1=O` [Theophylline, theophylline, reference compound], the solubility in series [1] was above 500 µM.

Take `Cc1ccc(C(=O)c2cc(O)c(O)c([N+](=O)[O-])c2)cc1` [tolcapone]: the “CHI (pH 2.0)” value in [2] (pH 2.0) worked out at 78.2. For the same compound, the “CHI (pH 10.5)” value in series [2] (pH 10.5) is given as 49.3. For the same compound, the EC50 was 29.8 ± 1.1 µM in [3] and 17.5 ± 2.4 µM in [4]. For the same compound, the recovery at 60 min, 10 µM in [5] (Caco-2, pH 7.4, A→B) is 53 ± 1%; in series [5] (Caco-2, pH 7.4, B→A), 70 ± 4%. This compound displayed a Papp A→B at 60 min, 10 μM in series [5] of 10.1 ± 1.2 ×10⁻⁶ cm/s. In addition, the Papp B→A at 60 min, 10 μM in [5] stood at 20.6 ± 5.8 ×10⁻⁶ cm/s. The “1-Rm (membrane retention)” value in [6] was determined as 0.9. Further, the Papp in series [6] (PBS pH 7.4, read-out: BBB-Pe) turned out to be 5.6 ×10⁻⁶ cm/s. Besides, the “CNS Class” value in series [6] (classified by Pe) is recorded as “CNS+ (BBB+, Pe > 4 × 10^−6 cm/s)”. In series [1], this compound displayed a solubility above 500 µM. Moreover, the Kd is 0.021 µM in series [7] (read-out: Kd′ (first binding site)) and 0.058 µM in series [7] (read-out: Kd″ (second binding site)). In series [8], the “n (stoichiometry of binding, ligand:TTR tetramer)” value is 2.0 ± 0.1. For the same compound, the “∆H” value in series [8] was -11.8 kcal/mol and -11.8 ± 0.5 kcal/mol.

For `COCCc1ccc(OCC(O)CNC(C)C)cc1` (stereo not shown) [Metoprolol, reference compound], the recovery at 60 min, 10 µM in series [5] (Caco-2, pH 7.4, A→B) is 105 ± 5%. This compound also displayed a Papp A→B at 60 min, 10 μM in [5] above 40 ×10⁻⁶ cm/s. The “Papp [Expected Values]” value in [9] (A→B) was >400 [>400] nm/s.

Consider `Cn1c(=O)c2c(ncn2C)n(C)c1=O` [Caffeine, caffeine], for which, in series [10] (expected class in brackets), the “CNS Class [Expected Values]” value was “CNS− [CNS−] (BBB−, Pe < 2 × 10^−6 cm/s)”. Besides, the “BBB-Pe [Expected Values]” value in series [10] (expected value in brackets) is on record as 1.3 10^−6 cm/s.

For the compound `C[C@H]1O[C@@H](O[C@H]2[C@@H](O)C[C@H](O[C@H]3[C@@H](O)C[C@H](O[C@H]4CC[C@@]5(C)[C@H](CC[C@@H]6[C@@H]5C[C@@H](O)[C@]5(C)[C@@H](C7=CC(=O)OC7)CC[C@]65O)C4)O[C@@H]3C)O[C@@H]2C)C[C@H](O)[C@@H]1O` [Digoxin, reference compound], the recovery at 60 min, 10 µM in series [5] (Caco-2, pH 7.4, A→B) was 67 ± 5%; in [5] (Caco-2, pH 7.4, B→A) it was 71 ± 6%. In addition, the recovery at 60 min in series [5] (A→B + Elacridar 2 µM) was 72 ± 1%; in series [5] (B→A + Elacridar 2 µM) it was 75 ± 3%. For the same compound, the efflux ratio at 60 min, 10 μM in [5] (Caco-2, pH 7.4, without inhibitor, read-out: Efflux Ratio (Papp BA/Papp AB)) is above 10. The Papp A→B at 60 min, 10 μM in series [5] turned out to be 0.2 ± 0.1 ×10⁻⁶ cm/s. The compound further registered a Papp B→A at 60 min, 10 μM in [5] of 14.1 ± 2.6 ×10⁻⁶ cm/s. The “Efflux Ratio (Reduction %)” value in series [11] is recorded as 96%. For the same compound, the “Papp [Expected Values]” value in [9] (A→B) is listed as 2 nm/s; in series [9] (B→A) it was 139 nm/s.

Take `O=C(O)c1ccc2nc(-c3cc(Cl)cc(Cl)c3)oc2c1` [tafamidis, reference compound]: in [8], the “n (stoichiometry of binding, ligand:TTR tetramer)” value was found to be 2.4 ± 0.1; the “∆H” value was -3.2 kcal/mol and -3.2 ± 0.3 kcal/mol.
